Test results taken from publication PMC6934184, “Selective DNA-PKcs inhibition extends the therapeutic index of localized radiotherapy and chemotherapy” (The Journal of Clinical Investigation, 2019).

Target: T1, SYK (Homo sapiens, UniProt P43405)
T1 construct: purchased Thermo Fisher Scientific (Life Technologies) SelectScreen
Test: SelectScreen Z'LYTE
Assay type: biochemical
Method in brief: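 NU5455 was profiled across the SelectScreen Broad panel of kinase activity and binding assays. Z'LYTE reactions such as CSF1R ran at apparent Km ATP, while the Adapta CAMK1 assay used ATP listed as 10. Values are given as percent.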

**Q.** How did the inhibition at 1 µM turn out when `CN(C(=O)CN1CCOCC1)c1ccc2sc3c(-c4cccc5c(=O)cc(N6CC7CCC(C6)O7)oc45)cccc3c2c1` [NU5455] was run?
**A.** -0.2%
